Measurements reported in patent publication US6680025B2, “Device and method for photoactivation” (Cerus Corporation, priority 1989, dated 2004).

What was measured:
[1] = tested on: calf thymus DNA; experiment: Binding of photoproduct to nucleic acid (dark reaction after pre-irradiation)
Method: The nucleic acid binding properties of photoproduct were investigated with calf thymus DNA. 200 μg/ml of ^3H-AMDMIP (1×10^5 CPM/ml) in Taq buffer was irradiated at room temperature with either the CE-III device or the PTI device. This irradiation was performed for 15 minutes in the absence of nucleic acid. Following the irradiations, 200 μl of the irradiated solution was mixed with 200 μl of 1000 μg/ml DNA solution in Taq buffer. Several identical samples were prepared in this manner. One set of samples was allowed to react with the DNA for 2 hours at room temperature. The other set of samples was subjected to 30 cycles of heating and cooling by placing the samples in a thermal cycler [Perkin-Elmer Cetus DNA Thermal Cycler (Part No. N8010150); each cycle involved 93° C. for 30 seconds, 55° C. for 30 seconds and 72° C. for 1 minute]. When the DNA reactions were complete, all samples were analyzed for DNA-associated tritium counts (CPM) by following the flow chart outlined in FIG. 17.
The DNA-associated counts are given in terms of adducts per 100 base pairs in Table 10. For calculation purposes, these adducts are reported as if they represented monomers of AMDMIP. Regardless of the accuracy of this approximation, the process of irradiating ^3H-AMDMIP clearly results in a tritiated product which associates (i.e. binds) with DNA in the absence of subsequent activating wavelengths of electromagnetic radiation. The extent of the association is shown in Table 10 to depend upon the reaction conditions.

[2] = tested on: HIV 115-mer PCR product carryover; experiment: Post-amplification sterilization, isopsoralen added after amplification (Example 54); type: biochemical; conditions: for sterilization of carryover: AMDMIP 100 μg/ml, PTI 15 minutes, 10^6 copies
Description: In this embodiment, the method of sterilization comprises: 1) providing PCR reagents, 2) providing template, 3) providing polymerase, 4) mixing PCR reagents, template, and polymerase to initiate PCR, 5) cycling to provide PCR product, 6) providing isopsoralen, 7) adding isopsoralen to PCR product, and 8) irradiating PCR product.
For the purposes of this determination, the steps of the following experiment include (see FIG. 40): a) preparing template, b) providing template, c) providing PCR reagents, d) providing polymerase, e) mixing PCR reagents, template, and polymerase to initiate PCR, f) cycling to provide PCR product, g) carrying over of PCR product into new tubes, h) providing isopsoralen, i) adding isopsoralen to the carryover, j) irradiating, k) addition of new PCR reagents, and 1) subsequent PCR.
Steps a), b), c), d), e), and f). PCR product was provided as described earlier.
Step g) Carrying over of PCR product. Aliquots of PCR product were added into new reaction tubes at 10^6 copies per tube.
Step h) Providing Isopsoralen. AMDMIP was synthesized as described and diluted.
Step i) Addition of Isopsoralen ANDDMIP (100 μg/ml, approximately 10^−4 M) was added reaction vessels containing carryover.
Step i) Irradiation. Irradiation was performed on the PTI device to avoid photoproduct. Three of the new reaction tubes were irradiated while the others were left unirradiated as controls. Irradiation was for 15 minutes at RT as above.
Step k) PCR Reagents and Tag Polymerase Were Added to Appropriate Concentrations. The final volume was increased two fold such that AMDMIP photoproducts were at 50 μg/ml.
Step l) Subsequent PCR. Amplification was performed, in closed reaction vessels using primer pair SK-38/39 for 20, 25 or 30 cycles, using the temperature profile for cycling described above in the presence of α-^32P-dCTP.

[3] = tested on: E. coli polymerase I; conditions: nick-translating a double-stranded template; cited from earlier work

Structure (SMILES) | ADDUCTS PER 1000 BASE PAIRS ([1]; device CE-II, pre-irradiated 15 mins. without nucleic acid, dark reaction room temp.) | ADDUCTS PER 1000 BASE PAIRS ([1]; device CE-III, pre-irradiated 15 mins. without nucleic acid, dark reaction thermally cycled) | ADDUCTS PER 1000 BASE PAIRS ([1]; device PTI, pre-irradiated 15 mins. without nucleic acid, dark reaction thermally cycled) | ADDUCTS PER 1000 BASE PAIRS ([1]; no irradiation, dark reaction room temp. 2 hours) | ADDUCTS PER 1000 BASE PAIRS ([1]; no irradiation, dark reaction thermally cycled 30 cycles) | reamplification of carryover with AMDMIP, not light-treated ([2]; 20, 25, 30 cycles) | sterilization of carryover ([2]; 20 cycles) | sterilization of carryover ([2]; 25 cycles) | sterilization of carryover ([2]; 30 cycles) | inhibition of polymerase by covalently bound monoadducts [3]
Cc1oc2ccc3c(C)cc(=O)oc3c2c1CN [AMDMIP, 4′-Aminomethyl-4,5′-dimethylisopsoralen] | 4.4 | 24.3 | 5.7 | 1.1 | 0.9 | show amplification | sterilization appears to be complete | reduced relative to controls | no significant sterilization is observed | –
Cc1cc2occc2c2oc(=O)ccc12 [MIP, 5-Methylisopsoralen] | – | – | – | – | – | – | – | – | – | not inhibited
